Data as given in patent US5527815A, “Carboxymethylidenecycloheptimidazole derivatives, method of manufacturing the same and therapeutic agents containing these compounds” (Kotobuki Seiyaku Co., Ltd., priority 1993, dated 1996).

What was measured:
Angiotensin II receptor = biological target: T1, Angiotensin II receptor (Oryctolagus cuniculus, UniProt P34976); experiment: AII receptor antagonistic activity: inhibition of angiotensin II induced contraction of isolated rabbit thoracic aorta; format: cell-based; details: isolated rabbit thoracic aorta contracted by angiotensin II; for Kb: from dose-response curve (Schild), read-out: pA2 (converted); for pD2': Van Rossum method, values shown in parenthesis
T1 construct: Rabbit thoracic aorta is isolated, contracted by angiotensin II; from tissue; host or cells: rabbit thoracic aorta
T1 sequence (P34976 1-359): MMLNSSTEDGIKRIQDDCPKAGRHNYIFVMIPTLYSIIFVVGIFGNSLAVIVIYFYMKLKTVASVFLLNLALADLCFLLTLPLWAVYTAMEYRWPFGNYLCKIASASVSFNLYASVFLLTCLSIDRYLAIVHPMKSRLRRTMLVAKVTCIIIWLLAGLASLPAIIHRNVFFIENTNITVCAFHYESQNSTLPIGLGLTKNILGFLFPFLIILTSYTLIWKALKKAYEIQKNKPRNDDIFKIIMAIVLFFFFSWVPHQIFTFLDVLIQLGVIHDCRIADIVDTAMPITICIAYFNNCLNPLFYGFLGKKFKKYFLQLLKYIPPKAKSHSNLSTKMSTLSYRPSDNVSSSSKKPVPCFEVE
Method: [AII receptor antagonistic activity]
Angiotensin II receptor activity experiments are carried out according to P. C. Wong et al. (Hypertension 15, 823 (1990)).
Rabbit thoracic aorta is isolated, contracted by angiotensin II. The inhibition of contraction by the compound of formula (1) is expressed as pA2 from dose-response curve (Schild, Brit. J. Pharmacol. 14, 48 (1959)) or expressed as pD2 ' according to the method of J. M. Van Rossum (Arch. Intern. Pharmacodyn., 143, 229 (1963)).

pressor responses to AII = experiment: Inhibition of AII induced blood pressure increase in rats; format: in vivo; details: Rattus norvegicus, po, test compound 0.3 mg/kg orally, AII 30 ng/kg i.v., pressor responses measured at set times
Method: [Inhibition of All induced Blood Pressure Increase]
Carotid artery and left femoral vein in rats were cannulated. Next day, the carotid catheter was connected to a pressure transducer for monitoring arterial blood pressure. After the measurement of AII (30 ng/kg, i.v.) pressor responses, test compounds (0.3 mg/kg) were administered orally.
Thereafter, the pressor responses to AII at set times were measured and the inhibition percent was calculated according to the comparison of the pressor responses.

**Q.** Which Kb (Angiotensin II receptor) does the source give for `CCOC(=O)/C=C1\CCCCc2nc(C)n(Cc3ccc(-c4ccccc4-c4nnn[nH]4)cc3)c21` [Compound 2, 2-Methyl-8-ethoxycarbonylmethylidene-1-[(2'-(1H-tetrazole-5-yl)biphenyl-4-yl)methyl]-4,5,6,7-tetrahydro-cycloheptimidazole] here?
**A.** 36.3 nM

**Q.** Which “pD2'” value (Angiotensin II receptor) does the source give for `CCOC(=O)/C=C1\CCCCc2nc(CC)n(Cc3ccc(-c4ccccc4-c4nnn[nH]4)cc3)c21` [Compound 3, 2-Ethyl-8-ethoxycarbonylmethylidene-1-[(2'-(1H-tetrazole-5-yl)biphenyl-4-yl)methyl]-4,5,6,7-tetrahydro-cycloheptimidazole] here?
**A.** 9.00

**Q.** How did the “pD2'” value (Angiotensin II receptor) turn out when `CCCc1nc2c(n1Cc1ccc(-c3ccccc3-c3nnn[nH]3)cc1)/C(=C/C(=O)OCC)CCCC2` [Compound 4, 2-Propyl-8-ethoxycarbonylmethylidene-1-[(2'-(1H-tetrazole-5-yl)biphenyl-4-yl)methyl]-4,5,6,7-tetrahydro-cycloheptimidazole] was run?
**A.** 8.40

**Q.** And the inhibition in vivo at 0.3 mg/kg (pressor responses to AII)?
**A.** 50 to 70%

**Q.** For `CCOC(=O)/C=C1\CC(C(C)C)CCc2nc(CC)n(Cc3ccc(-c4ccccc4-c4nnn[nH]4)cc3)c21` (stereo not shown) [Compound 7, 2-Ethyl-6-isopropyl-8-ethoxycarbonylmethylidene-1-[(2'-(1H-tetrazole-5yl)biphenyl-4-yl)methyl]-4,5,6,7-tetrahydro-cycloheptimidazole], which inhibition in vivo at 0.3 mg/kg (pressor responses to AII) is on record?
**A.** ≥ 70%

**Q.** Which Kb (Angiotensin II receptor) does the source give for `CCCc1nc2c(n1Cc1ccc(-c3ccccc3-c3nn[nH]n3)cc1)CCCC/C2=C\C(=O)O` [Compound 14, 2-Propyl-4-carboxymethylidene-1-[(2'-(1H-tetrazole-5-yl)biphenyl-4-yl)methyl]-5,6,7,8-tetrahydro-cycloheptimidazole] here?
**A.** 0.158 nM

**Q.** `Cc1nc2c(n1Cc1ccc(-c3ccccc3-c3nnn[nH]3)cc1)/C(=C/C(=O)O)CCCC2` [Compound 15, 2-Methyl-8-carboxymethylidene-1-[(2'-(1H-tetrazole-5-yl)biphenyl-4-yl)methyl]-4,5,6,7-tetrahydro-cycloheptimidazole] was tested. Which “pD2'” value (Angiotensin II receptor) did it give?
**A.** 9.91

**Q.** For `CCc1nc2c(n1Cc1ccc(-c3ccccc3-c3nnn[nH]3)cc1)/C(=C/C(=O)O)CCCC2` [Compound 16, 2-Ethyl-8-carboxymethylidene-1-[(2'-(1H-tetrazole-5-yl)biphenyl-4-yl)methyl]-4,5,6,7-tetrahydro-cycloheptimidazole], which “pD2'” value (Angiotensin II receptor) is on record?
**A.** 9.91

**Q.** And the inhibition in vivo at 0.3 mg/kg (pressor responses to AII)?
**A.** ≥ 70%

**Q.** How did the “pD2'” value (Angiotensin II receptor) turn out when `CCCc1nc2c(n1Cc1ccc(-c3ccccc3-c3nnn[nH]3)cc1)/C(=C/C(=O)O)CCCC2` [Compound 17, 2-Propyl-8-carboxymethylidene-1-[(2'-(1H-tetrazole-5-yl)biphenyl-4-yl)methyl]-4,5,6,7-tetrahydro-cycloheptimidazole] was run?
**A.** 9.86

**Q.** What about the inhibition in vivo at 0.3 mg/kg (pressor responses to AII) of the same compound?
**A.** 50 to 70%

**Q.** Which “pD2'” value (Angiotensin II receptor) does the source give for `CCCCc1nc2c(n1Cc1ccc(-c3ccccc3-c3nnn[nH]3)cc1)/C(=C/C(=O)O)CCCC2` [Compound 18, 2-Butyl-8-carboxymethylidene-1-[(2'-(1H-tetrazole-5-yl)biphenyl-4-yl)methyl]-4,5,6,7-tetrahydro-cycloheptimidazole] here?
**A.** 9.03

**Q.** How did the Kb (Angiotensin II receptor) turn out when `CCCCCc1nc2c(n1Cc1ccc(-c3ccccc3-c3nn[nH]n3)cc1)/C(=C/C(=O)O)CCCC2` [Compound 19, 2-Pentyl-8-carboxymethylidene-1-[(2'-(1H-tetrazole-5-yl)biphenyl-4-yl)methyl]-4,5,6,7-tetrahydro-cycloheptimidazole] was run?
**A.** 1.51 nM

**Q.** How did the “pD2'” value (Angiotensin II receptor) turn out when `CCc1nc2c(n1Cc1ccc(-c3ccccc3-c3nnn[nH]3)cc1)/C(=C/C(=O)O)CC(C(C)C)CC2` (stereo not shown) [Compound 20, 2-Ethyl-6-isopropyl-8-carboxymethylidene-1-[(2'-(1H-tetrazole-5-yl)biphenyl-4-yl)methyl]-4,5,6,7-tetrahydro-cycloheptimidazole] was run?
**A.** 9.04

**Q.** For `CCCc1nc2c(n1Cc1ccc(-c3ccccc3-c3nnn[nH]3)cc1)/C(=C/C(=O)O)CC(C(C)C)CC2` (stereo not shown) [Compound 21, 2-Propyl-6-isopropyl-8-carboxymethylidene-1-[(2'-(1H-tetrazole-5-yl)biphenyl-4-yl)methyl]-4,5,6,7-tetrahydro-cycloheptimidazole], which “pD2'” value (Angiotensin II receptor) is on record?
**A.** 9.08

**Q.** Which Kb (Angiotensin II receptor) does the source give for `Cc1nc2c(n1Cc1ccc(-n3cccc3-c3nn[nH]n3)cc1)/C(=C/C(=O)O)CCCC2` [Compound 22, 2-Methyl-8-carboxymethylidene-1-[4-(1H-pyrrole-2-(1H-tetrazole-5-yl)phenyl)methyl]-4,5,6,7-tetrahydro-cycloheptimidazole] here?
**A.** 1.26 nM

**Q.** Which “pD2'” value (Angiotensin II receptor) does the source give for `CCc1nc2c(n1Cc1ccc(-n3cccc3-c3nnn[nH]3)cc1)/C(=C/C(=O)O)CCCC2` [Compound 23, 2-Ethyl-8-carboxymethylidene-1-[4-(1H-pyrrole-2-(1H-tetrazole-5-yl)phenyl)methyl]-4,5,6,7-tetrahydro-cycloheptimidazole] here?
**A.** 9.60

**Q.** How did the Kb (Angiotensin II receptor) turn out when `CCCc1nc2c(n1Cc1ccc(-n3cccc3-c3nn[nH]n3)cc1)/C(=C/C(=O)O)CCCC2` [Compound 24, 2-Propyl-8-carboxymethylidene-1-[4-(1H-pyrrole-2-(1H-tetrazole-5-yl)phenyl)methyl]-4,5,6,7-tetrahydro-cycloheptimidazole] was run?
**A.** 0.158 nM

**Q.** `CCCCc1nc2c(n1Cc1ccc(-c3ccccc3-c3nnn[nH]3)cc1)/C(=C/C(=O)O)CC(C(C)C)CC2` (stereo not shown) [Compound 25, 2-Butyl-6-isopropyl-8-carboxymethylidene-1-[(2'-(1H-tetrazole-5-yl)biphenyl-4-yl)methyl]-4,5,6,7-tetrahydro-cycloheptimidazole] was tested. Which “pD2'” value (Angiotensin II receptor) did it give?
**A.** 8.88

**Q.** Which Kb (Angiotensin II receptor) does the source give for `CCCCc1nc2c(n1Cc1ccc(-n3cccc3-c3nn[nH]n3)cc1)/C(=C/C(=O)O)CCCC2` [Compound 26, 2-Butyl-8-carboxymethylidene-1-[4-(1H-pyrrole-2-(1H-tetrazole-5-yl)phenyl)methyl]-4,5,6,7-tetrahydro-cycloheptimidazole] here?
**A.** 0.501 nM

**Q.** How did the “pD2'” value (Angiotensin II receptor) turn out when `CCCc1nc2c(n1Cc1ccc(-c3ccccc3-c3nnn[nH]3)cc1)/C(=C/C(=O)OC(C)OC(=O)OCC)CCCC2` (stereo not shown) [Compound 27, 2-Propyl-8-(1-ethoxycarbonyloxy)ethoxycarbonylmethylidene-1-[(2'-(1H-tetrazole-5-yl)biphenyl-4-yl)methyl]-4,5,6,7-tetrahydro-cycloheptimidazole] was run?
**A.** 8.45

**Q.** With `CCCc1nc2c(n1Cc1ccc(-c3ccccc3-c3nnn[nH]3)cc1)/C(=C/C(=O)OC(C)OC(=O)OC1CCCCC1)CCCC2` (stereo not shown) [Compound 28] as the compound, how does the inhibition in vivo at 0.3 mg/kg (pressor responses to AII) read?
**A.** ≥ 70%

**Q.** For `CCc1nc2c(n1Cc1ccc(-c3ccccc3-c3nnn[nH]3)cc1)/C(=C/C(=O)OC(C)OC(=O)OC(C)C)CCCC2` (stereo not shown) [Compound 30, 2-Ethyl-8-(1-isopropoxycarbonyloxy)ethoxycarbonylmethylidene-1-[(2'-(1H-tetrazole-5-yl)biphenyl-4-yl)methyl]-4,5,6,7-tetrahydro-cycloheptimidazole], which “pD2'” value (Angiotensin II receptor) is on record?
**A.** 8.11

**Q.** Which inhibition in vivo at 0.3 mg/kg (pressor responses to AII) does the source give for `CCc1nc2c(n1Cc1ccc(-c3ccccc3-c3nnn[nH]3)cc1)/C(=C/C(=O)OC(C)OC(=O)OC(C)C)CC(C(C)C)CC2` (stereo not shown) [Compound 31, 2-Ethyl-6-isopropyl-8-(1-isopropoxycarbonyloxy)ethoxycarbonylmethylidene-1-[(2'-(1H-tetrazole-5-yl)biphenyl-4-yl)methyl]-4,5,6,7-tetrahydro cycloheptimidazole] here?
**A.** ≥ 70%

**Q.** For `CCc1nc2c(n1Cc1ccc(-n3cccc3-c3nnn[nH]3)cc1)/C(=C/C(=O)OC(C)OC(=O)OC(C)C)CCCC2` (stereo not shown) [Compound 32, 2-Ethyl-8-(1-isopropoxycarbonyloxy)ethoxycarbonylmethylidene-[4-(1H-pyrrole-2-(1H-tetrazole-5-yl)phenyl)methyl]-4,5,6,7-tetrahydro-cycloheptimidazole], which “pD2'” value (Angiotensin II receptor) is on record?
**A.** 9.38

**Q.** With `CCCc1nc2c(n1Cc1ccc(-c3ccccc3-c3nnn[nH]3)cc1)/C(=C/C(=O)OC(C)OC(=O)OC(C)C)CC(C(C)C)CC2` (stereo not shown) [Compound 33, 2-Propyl-6-isopropyl-8-(1-isopropoxycarbonyloxy)ethoxycarbonylmethylidene-1-[(2'-(1H-tetrazole-5-yl)biphenyl-4-yl)methyl]-4,5,6,7-tetrahydro-cycloheptimidazole] as the compound, how does the inhibition in vivo at 0.3 mg/kg (pressor responses to AII) read?
**A.** ≥ 70%

**Q.** `CCc1nc2c(n1Cc1ccc(-c3ccccc3-c3nnn[nH]3)cc1)/C(=C/C(=O)OC(C)OC(=O)OC1CCCCC1)CCCC2` (stereo not shown) [Compound 35] was tested. Which “pD2'” value (Angiotensin II receptor) did it give?
**A.** 8.12

**Q.** With `CCOC(=O)OC(C)OC(=O)/C=C1\CCCCc2nc(CC)n(Cc3ccc(-c4ccccc4-c4nnn[nH]4)cc3)c21` (stereo not shown) [Compound 36, 2-Ethyl-8-(1-ethoxycarbonyloxy)ethoxycarbonylmethylidene-1-[(2'-(1H -tetrazole-5-yl)biphenyl-4yl)methyl]-4,5,6,7-tetrahydro-cycloheptimidazole] as the compound, how does the “pD2'” value (Angiotensin II receptor) read?
**A.** 8.59
